A short description of one data set: Aqueous solubility. Format: physicochemical. The note with it: for solubility: aqueous solution. The source says:
The compounds of the present invention may have improved aqueous solubility compared with telcagepant.

Data set [1] is described as follows: In vivo conversion to telcagepant after IV dosing, rat (plasma AUC by LC/MS). To be noted: 3.53 umol/kg, IV dose 3.53 μmol/kg, DMSO vehicle, plasma AUC of Compound 1 (telcagepant). The source says:
The compounds of the present invention may be efficiently converted to give parent telcagepant in vivo. For illustrative purposes, data for the in vivo conversion of Example 1 to telcagepant in preclinical species are shown in Table 2.

The source of these data is patent US8080544B2, “Prodrugs of CGRP receptor antagonists” (Merck Sharp & Dohme Corp., priority 2008, dated 2011).

In brackets after ≈: the same amount, converted by molar mass.

As for `O=C(N[C@@H]1CC[C@@H](c2cccc(F)c2F)CN(CC(F)(F)F)C1=O)N1CCC(n2c(=O)[nH]c3ncccc32)CC1` [Telcagepant, N-[(3R,6S)-6-(2,3-difluorophenyl)-2-oxo-1-(2,2,2-trifluoroethyl)azepan-3-yl]-4-(2-oxo-2,3-dihydro-1H-imidazo[4,5-b]pyridine-1-yl)piperidin-1-carboxamide], the solubility (in general, how much of the substance goes into solution per volume) in “Aqueous solubility” (aqueous buffer, pH 2.0) was 77 µg/mL (≈ 136 µM); in the data set “Aqueous solubility” (pH 7.3, aqueous buffer), 31 µg/mL (≈ 54.7 µM). In addition, the “aqueous solubility (in words)” value in “Aqueous solubility” (general statement, no pH given) is reported as “low aqueous solubility”. In addition, in data set [1], the exposure (AUC) (in general, concentration integrated over time) is 6.46 µM·h.
As for `O=C(N[C@@H]1CC[C@@H](c2cccc(F)c2F)CN(CC(F)(F)F)C1=O)N1CCC(n2c(=O)n(COP(=O)([O-])O)c3ncccc32)CC1.[Na+]` [Example 1, {1-[1-({[(3R,6S)-6-(2,3-Difluorophenyl)-2-oxo-1-(2,2,2-trifluoroethyl)azepan-3-yl]amino}carbonyl)piperidin-4-yl]-2-oxo-1,2-dihydro-3H-imidazo[4,5-b]pyridin-3-yl}methyl hydrogen sodium phosphate], the solubility in “Aqueous solubility” (aqueous buffer, pH 4.0) is more than 150000 µg/mL; in the data set “Aqueous solubility” (aqueous buffer, pH 9.0), more than 150000 µg/mL.
